One assay has as its system rats. To be noted: in overnight fasted rats; cited from earlier work.
Another assay has as its target F1-ATPase β-subunit (Homo sapiens, UniProt P06576). To be noted: effect of the analog on binding of 125I-β-casomorphin1-7 to F1-ATPase β-subunit; cited from earlier work.
For assay [1] the following is noted: in vivo; cited from earlier work.
A further assay has as its system AMPK. The assay is described as follows: pAMPK Western blot in HepG2 cells, 15 min incubation. It counts as cell-based, human. The method, then:
Human liver cells (HepG2 cell line, American Type Culture Collection, Manassas, Va.) were grown and maintained in Dulbecco's modified eagle's medium (Gibco, Carlsbad, Calif.) containing 10% fetal bovine serum, penicillin (100 I.U./ml), and streptomycin (100 μg/ml). The cells were then incubated for 15 min with 5 mM glucose and various concentrations of enterostatin (0.003, 0.01, 0.1, 1, and 3 μM) and/or of its antagonist β-casomorphin (BCM) (0.003, 0.01, 0.1, 1, and 3 μM). After incubation, the cells were lysed and the cytosolic proteins subjected to Western blot analysis for AMPK and pAMPK. The results for pAMPK activity are shown in FIG. 5A (enterostatin) and FIG. 5B (BCM). […] This effect was blocked by the presence of an antibody to the enterostatin receptor (anti F1-ATPase beta subunit).
(In general: Immunoblotting shows a protein as a band on a membrane.)

F1-ATPase β-subunit, sequence (P06576 48-529): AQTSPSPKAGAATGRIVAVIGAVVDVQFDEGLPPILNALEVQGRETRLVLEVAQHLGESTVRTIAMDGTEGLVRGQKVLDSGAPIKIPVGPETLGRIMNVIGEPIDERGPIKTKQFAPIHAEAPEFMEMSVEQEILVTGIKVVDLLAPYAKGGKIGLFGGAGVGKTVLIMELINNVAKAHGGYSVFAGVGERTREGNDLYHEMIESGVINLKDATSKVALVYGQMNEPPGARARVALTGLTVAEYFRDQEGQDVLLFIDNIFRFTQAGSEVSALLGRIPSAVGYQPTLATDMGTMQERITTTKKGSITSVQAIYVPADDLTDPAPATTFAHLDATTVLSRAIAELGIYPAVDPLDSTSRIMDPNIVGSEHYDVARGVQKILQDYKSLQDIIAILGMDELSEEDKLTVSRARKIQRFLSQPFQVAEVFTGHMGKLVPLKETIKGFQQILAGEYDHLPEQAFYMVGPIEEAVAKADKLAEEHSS

With YPFPGPI [enterostatin analog], in the assay with rats, the “Intake of high fat diet” value is given as “Stimulation”. Moreover, in the assay with F1-ATPase β-subunit, the “Binding of 125I-β-casomorphin1-7” value is “Displaced”.
On to “Glucagon: drug for severe hypoglycemia that stimulates the liver to release large amounts of glucose”, for which the “Time to restore blood sugar” value in assay [1] is 5 to 15 min.
In the case of PDP, the “Intake of high fat diet” value with rats is given as “Suppression”. Also, the “Binding of 125I-β-casomorphin1-7” value on F1-ATPase β-subunit is given as “Increased”.
Turning to YPGPR, the “Intake of high fat diet” value with rats is listed as “Suppression”. For the same compound, on F1-ATPase β-subunit, the “Binding of 125I-β-casomorphin1-7” value was “Increased”.
With VPDPR-NH2, the “Intake of high fat diet” value in the assay with rats was “No changes”. Besides, the “Binding of 125I-β-casomorphin1-7” value at F1-ATPase β-subunit is reported as “Displaced”.
As for PGP, the “Intake of high fat diet” value in the assay on rats is on record as “No changes”. For the same compound, the “Binding of 125I-β-casomorphin1-7” value at F1-ATPase β-subunit is given as “Increased”.
Regarding CYDPGPR [enterostatin analog], in the assay on rats, the “Intake of high fat diet” value was “Stimulation”. The “Binding of 125I-β-casomorphin1-7” value in the assay with F1-ATPase β-subunit is reported as “Displaced”.
YGGAPGPR [enterostatin analog]: the “Intake of high fat diet” value in the assay on rats is on record as “Suppression”. In the assay with F1-ATPase β-subunit, the “Binding of 125I-β-casomorphin1-7” value is “Increased”.
With CYAPGPR [enterostatin analog], the “Intake of high fat diet” value with rats is reported as “Stimulation”. The “Binding of 125I-β-casomorphin1-7” value with F1-ATPase β-subunit is listed as “Displaced”.
Regarding YVPDPR, in the assay with rats, the “Intake of high fat diet” value is on record as “Suppression”. Moreover, the “Binding of 125I-β-casomorphin1-7” value on F1-ATPase β-subunit is listed as “Increased”.
Take PGPCY: in the assay on rats, the “Intake of high fat diet” value is “No changes”. On F1-ATPase β-subunit, the “Binding of 125I-β-casomorphin1-7” value was “Increased”.
On to APGPR, for which the “Intake of high fat diet” value with rats was “Suppression”. Also, at F1-ATPase β-subunit, the “Binding of 125I-β-casomorphin1-7” value is “Increased”.
Regarding `CC1=NS(=O)(=O)c2cc(Cl)ccc2N1` [Diazoxide, diazoxide], in assay [1], the Duration of action entry was “about 8 hr” and the “Time to act (increase of blood sugar)” value was ≤ 1 h.
Regarding VPDPRCY [enterostatin analog], the “Intake of high fat diet” value in the assay with rats is recorded as “Suppression”. Also, in the assay with F1-ATPase β-subunit, the “Binding of 125I-β-casomorphin1-7” value was “Increased”.
On to APGPY, for which the “Intake of high fat diet” value in the assay with rats is listed as “Suppression”. Also, the “Binding of 125I-β-casomorphin1-7” value on F1-ATPase β-subunit is on record as “Increased”.
For APGPRY, the “Intake of high fat diet” value with rats was “No changes”. The “Binding of 125I-β-casomorphin1-7” value at F1-ATPase β-subunit was “Increased”.
As to DPGPR, the “Intake of high fat diet” value in the assay on rats is “No changes”. Also, the “Binding of 125I-β-casomorphin1-7” value on F1-ATPase β-subunit is on record as “Displaced”.
For cyclo-HP, in the assay on rats, the “Intake of high fat diet” value is given as “^bOnly inhibits food intake as cyclo-HP”.
For the compound APGPRCY [enterostatin analog], the “Intake of high fat diet” value in the assay with rats is given as “Suppression”. Besides, the “Binding of 125I-β-casomorphin1-7” value with F1-ATPase β-subunit is reported as “Increased”.
Take β-casomorphin [reference compound]: the pAMPK levels result in the assay with AMPK (HepG2, 0.1 or 1.0 μM, 15 min) is reported as “increased pAMPK levels”. The “Effect on pAMPK in presence of antibody anti F1-ATPase beta subunit” value in the assay on AMPK (HepG2, 15 min, 5 mM glucose) is “blocked this effect”. In addition, the “AMPkinase activity shown by pAMPK” value in the assay on AMPK (HepG2, 15 min, 5 mM glucose, 0.003-3 μM) is on record as “activated AMPkinase”.
Turning to VPDPR, in the assay on rats, the “Intake of high fat diet” value was “Suppression”. The “Binding of 125I-β-casomorphin1-7” value at F1-ATPase β-subunit is given as “Increased”.
On to YPDPR, for which the “Intake of high fat diet” value in the assay on rats is “Suppression”. Also, the “Binding of 125I-β-casomorphin1-7” value on F1-ATPase β-subunit was “Increased”.

The record behind these values is patent publication US20100267629A1, “Enterostatin as Therapeutic Agent for Hypoglycemia” (Board of Supervisors of Louisiana State University and …, priority 2006, published 2010).
